Laboratory results: patent US20090311198A1, “Perhydrolase for Tooth Whitening” (priority 2006, published 2009)
Marks after values point to notes of the source that are not given here.

Key:
[1] = Intrinsic stain removal (tooth whitening) on human enamel specimens, CIELAB colour readings; details: for Total Change (ΔE) in Intrinsic Stain Scores: 20 ml, 30 minute intervals, mean ± SD, n = 8; for Dose-response of tooth whitening (ΔE): 0.20% to 0.01% solutions
Excerpt: In the following Examples, human permanent teeth with natural intrinsic stains were obtained from oral surgeons. Selection of appropriate teeth was based on the presence of intrinsic stain after removal of exogenous stains using methods known in the art involving use of rubber cup polishing with an aqueous pumice slurry. A VITA® dental shade guide was used as a reference for tooth selection. Only specimens with a shade score of A3 or darker after drying were used in these experiments. The test specimens were comprised of cylinders of human enamel 3 mm in diameter mounted in a 10-mm-diameter black acrylic base. The circular pieces of human enamel were cut using a 3-mm diamond core drill (Continental). In order to cut the enamel, the human teeth were first mounted in 2-cm square blocks of self-curing dental acrylic with the labial surface exposed. Each block was then clamped into a small vise and immersed in a container of water to prevent the enamel from burning during the cutting process. Each immersed tooth was positioned directly under and perpendicular to the diamond core drill bit mounted on the end of an electric drill press. At high speed, the diamond core drill was lowered onto the tooth and gentle pressure was applied as the bit cut through the enamel and dentin. The 3-mm piece of cut enamel was then removed from the end of the diamond core drill and embedded with the aid of a circular mold into black, self-curing dental acrylic, providing circular blocks 10 mm in diameter. This was done in such a manner that the areas of tooth substance exposed by the drilling process were sealed by the acrylic, while the 3-mm surface enamel was left exposed. The finished tooth specimens were examined under a dissecting microscope. Specimens with imperfections were discarded. Acceptable specimens were thoroughly rinsed with distilled water, and refrigerated in a humidor until use.
In these experiments, stain on the teeth was measured using the following method. The amount of the intrinsic stain within the teeth was measured by taking color readings with a Minolta CM-503i Spectrophotometer with diffuse illumination/8° viewing angle and 3 mm aperture. Measurements over the entire visible color spectrum were obtained using the CIELAB (Commission Internationale de L'Eclairage, Recommendations on Uniform Color Spaces. Color Difference Equations. Psychometric color Terms, Suppl. 2 to CIE publication 15 (E-13.1) 1971/(TC-1.3), 1978, Paris: Bureau Central de la CIE, 1978) color scale. This scale quantifies color according to 3 parameters, L* (lightness-darkness value), a* (red-green chroma), and b* (yellow-blue chroma). In order to obtain reproducible readings, the enamel specimens were allowed to air-dry at room temperature for 30 minutes before color measurements were taken. When the specimens were exposed to air, the teeth became whiter as they dry within the first few minutes and the color parameters change dramatically, but stabilized after 30 minutes.
Measurements were obtained by aligning the center of the circular 3-mm segment of enamel directly over the 3-mm-diameter targeting aperture of the Minolta spectrophotometer, which enabled accurate positioning of the specimens for each test. An average of 3 color readings using the L*a*b* scale were taken for each specimen.
In this Example, methods of treating the tooth samples are described. Before treatment, the baseline L*a*b* color scores of the tooth specimens were determined and used to stratify the teeth samples into balanced groups of 8 specimens each. For testing, each tooth specimen was immersed in 20 ml of the respective test solution for 30 minutes. The test solutions were stirred at 60 rpm with a mechanical stirrer for the duration of the exposure.
Following each 30-minute treatment period, the specimens were rinsed and then placed back into fresh test solution. […] As a control group, 8 teeth were similarly treated in distilled water. […]

[2] = Hydrolysis of PAA standards in buffer (ABTS assay standard curve); assay type: physicochemical; details: B(OH)3 buffer; standard concentrations in B(OH)3, pH 8.5 buffer
Procedure: The standard curve was prepared as described below. A working stock of PAA was prepared by diluting 32% 10^4-fold to 0.4 mM in water (note: stock contained acetic acid). […] At ambient temperature, 50 to 100 uL of standard PAA dilution were added to 1 mL of the ABTS reagent. The solution was mixed well and incubated at ambient temperature for 3 minutes. The absorbance at 420 nm (or another chosen wavelength) was then measured.

[3] = aqueous 1% (by weight) solution; ambient to oral range temperatures; cited from earlier work
[4] = dilute 1% aqueous solution, cited from earlier work

Structure (SMILES): OO [H2O2, hydrogen peroxide]
- Total Change (ΔE) in Intrinsic Stain Scores ([1]; 3% (positive control), Hour 1): 6.21 ± 3.46^a
- Total Change (ΔE) in Intrinsic Stain Scores ([1]; 3% (positive control), Hour 2): 7.15 ± 2.96^a
- Total Change (ΔE) in Intrinsic Stain Scores ([1]; 3% (positive control), Hour 4): 7.28 ± 2.75^a
- Total Change (ΔE) in Intrinsic Stain Scores ([1]; 3% (positive control), Hour 8): 7.48 ± 2.95^a
- Total Change (ΔE) in Intrinsic Stain Scores ([1]; 3% (positive control), Hour 10): 7.77 ± 3.34^a
- Total Change (ΔE) in Intrinsic Stain Scores ([1]; 3% (positive control), Hour 12): 9.00 ± 4.07^a
- Total Change (ΔE) in Intrinsic Stain Scores ([1]; 3% (positive control), Hour 14): 9.68 ± 3.85^a
- Total Change (ΔE) in Intrinsic Stain Scores ([1]; 3% (positive control), Hour 16): 10.68 ± 3.51^a

Structure (SMILES): CC(=O)OO [Peracetic Acid, peracetic acid]
- Total Change (ΔE) in Intrinsic Stain Scores ([1]; 0.01% in 100 mmolar phosphate buffer, Hour 1): 2.98 ± 2.57^b,c,d
- Total Change (ΔE) in Intrinsic Stain Scores ([1]; 0.01% in 100 mmolar phosphate buffer, Hour 2): 4.06 ± 2.51^b
- Total Change (ΔE) in Intrinsic Stain Scores ([1]; 0.01% in 100 mmolar phosphate buffer, Hour 4): 4.09 ± 2.33^b
- Total Change (ΔE) in Intrinsic Stain Scores ([1]; 0.01% in 100 mmolar phosphate buffer, Hour 8): 5.11 ± 2.71^a
- Total Change (ΔE) in Intrinsic Stain Scores ([1]; 0.01% in 100 mmolar phosphate buffer, Hour 10): 5.88 ± 2.55^a
- Total Change (ΔE) in Intrinsic Stain Scores ([1]; 0.01% in 100 mmolar phosphate buffer, Hour 12): 6.79 ± 3.23^a
- Total Change (ΔE) in Intrinsic Stain Scores ([1]; 0.01% in 100 mmolar phosphate buffer, Hour 14): 7.13 ± 3.14^a
- Total Change (ΔE) in Intrinsic Stain Scores ([1]; 0.01% in 100 mmolar phosphate buffer, Hour 16): 7.57 ± 3.05^a
- Total Change (ΔE) in Intrinsic Stain Scores ([1]; 0.05% in 100 mmolar phosphate buffer, Hour 1): 3.41 ± 2.19^b,c,d
- Total Change (ΔE) in Intrinsic Stain Scores ([1]; 0.05% in 100 mmolar phosphate buffer, Hour 2): 3.83 ± 1.81^b
- Total Change (ΔE) in Intrinsic Stain Scores ([1]; 0.05% in 100 mmolar phosphate buffer, Hour 4): 4.72 ± 1.67^b
- Total Change (ΔE) in Intrinsic Stain Scores ([1]; 0.05% in 100 mmolar phosphate buffer, Hour 8): 5.04 ± 1.72^a
- Total Change (ΔE) in Intrinsic Stain Scores ([1]; 0.05% in 100 mmolar phosphate buffer, Hour 10): 6.08 ± 1.25^a
- Total Change (ΔE) in Intrinsic Stain Scores ([1]; 0.05% in 100 mmolar phosphate buffer, Hour 12): 6.55 ± 1.79^a
- Total Change (ΔE) in Intrinsic Stain Scores ([1]; 0.05% in 100 mmolar phosphate buffer, Hour 14): 6.82 ± 1.91^a
- Total Change (ΔE) in Intrinsic Stain Scores ([1]; 0.05% in 100 mmolar phosphate buffer, Hour 16): 7.72 ± 2.15^a
- Total Change (ΔE) in Intrinsic Stain Scores ([1]; 0.10% in 100 mmolar phosphate buffer, Hour 1): 5.60 ± 2.69^a,b
- Total Change (ΔE) in Intrinsic Stain Scores ([1]; 0.10% in 100 mmolar phosphate buffer, Hour 2): 5.38 ± 1.75^a,b
- Total Change (ΔE) in Intrinsic Stain Scores ([1]; 0.10% in 100 mmolar phosphate buffer, Hour 4): 6.09 ± 2.52^a,b
- Total Change (ΔE) in Intrinsic Stain Scores ([1]; 0.10% in 100 mmolar phosphate buffer, Hour 8): 6.58 ± 2.94^a
- Total Change (ΔE) in Intrinsic Stain Scores ([1]; 0.10% in 100 mmolar phosphate buffer, Hour 10): 7.05 ± 3.31^a
- Total Change (ΔE) in Intrinsic Stain Scores ([1]; 0.10% in 100 mmolar phosphate buffer, Hour 12): 7.89 ± 3.47^a
- Total Change (ΔE) in Intrinsic Stain Scores ([1]; 0.10% in 100 mmolar phosphate buffer, Hour 14): 8.71 ± 4.66^a
- Total Change (ΔE) in Intrinsic Stain Scores ([1]; 0.10% in 100 mmolar phosphate buffer, Hour 16): 9.08 ± 4.24^a
- Total Change (ΔE) in Intrinsic Stain Scores ([1]; 0.20% in 100 mmolar phosphate buffer, Hour 1): 5.31 ± 1.75^a,b,c
- Total Change (ΔE) in Intrinsic Stain Scores ([1]; 0.20% in 100 mmolar phosphate buffer, Hour 2): 6.60 ± 2.37^a
- Total Change (ΔE) in Intrinsic Stain Scores ([1]; 0.20% in 100 mmolar phosphate buffer, Hour 4): 7.37 ± 2.85^a
- Total Change (ΔE) in Intrinsic Stain Scores ([1]; 0.20% in 100 mmolar phosphate buffer, Hour 8): 7.54 ± 2.34^a
- Total Change (ΔE) in Intrinsic Stain Scores ([1]; 0.20% in 100 mmolar phosphate buffer, Hour 10): 7.72 ± 3.12^a
- Total Change (ΔE) in Intrinsic Stain Scores ([1]; 0.20% in 100 mmolar phosphate buffer, Hour 12): 8.53 ± 3.65^a
- Total Change (ΔE) in Intrinsic Stain Scores ([1]; 0.20% in 100 mmolar phosphate buffer, Hour 14): 9.08 ± 3.81^a
- Total Change (ΔE) in Intrinsic Stain Scores ([1]; 0.20% in 100 mmolar phosphate buffer, Hour 16): 9.34 ± 4.10^a
- Tooth whitening (ΔE) compared with hydrogen peroxide positive control ([1]; after 8 hours, ANOVA and SNK test, p < 0.05): statistically equivalent to the hydrogen peroxide positive control
- Dose-response of tooth whitening (ΔE) ([1]; during the first four hours of treatment): significant dose-response
- Dose-response of tooth whitening (ΔE) ([1]; up to 16 hours of treatment): numerical dose-response effect
- half-life [2]: 25 min
- Whitening effect on teeth compared with 30% (by weight) aqueous hydrogen peroxide [3]: faster and superior whitening effect
- Time to substantial decomposition ([4]; ambient temperatures): ≥ 30 days
- Storage stability ([4]; storage at 3° C.): significantly improves stability
